Key:
[1] = test system: thrombin formation in blood plasma; experiment: Assay for measuring thrombin formation in real-time (thrombogram); type: biochemical; conditions: low-thrombocyte plasma; maximum thrombin concentration in thrombogram
Procedure: This method was used to determine the formation of thrombin in blood plasma, triggered in each case by the polyphosphates, in relation to time and to the amounts of polyphosphate used. With the aid of the so-called thrombograms thus obtained, it is possible to draw conclusions concerning the response rate and the extent of thrombin formation. The measurements were carried out in accordance with the instructions from Thrombinoscope BV (manufacturer of the below-mentioned fluorogenic substrate) in a fluorometer (Fluoroscan Ascent, Thermo Scientific) equipped with a dispenser (see F. Müller et al., Cell 2009, 139, 1143-1156 and Supplemental Data). […] Inner filter effects and the substrate consumption were corrected by calibrating each measurement against a fluorescence curve which was determined by means of a mixture of the plasma (80 μl) with a fixed amount of thrombin/α2-macroglobulin complex (Thrombin Calibrator, Thrombinoscope BV). […]
Characteristic of the thrombograms are, in particular, the delay time and the endogenous thrombin potential (ETP). […] ETP refers to the integral of the measured curve of the thrombin concentration. […]
Table 1 below characterizes the investigated phosphates in terms of their water solubility, their chain length, their solid structure and their hemostatic action. Here, water-soluble refers to phosphates having a water solubility of at least 1 g per 100 g of water, as determined by the above-described technique. Here, hemostatic refers to phosphates where the thrombograms, as determined by the above-described technique, have a maximum thrombin concentration of at least 50 nM. As can be clearly read off from Table 1, all the crystalline, water-insoluble polyphosphates according to the invention are notable for a hemostatic action, whereas amorphous, water-soluble polyphosphates and also crystalline mono-, tri- and metaphosphates are not hemostatic.

[2] = Determination of solubility in water; type: physicochemical; conditions: distilled water, 20-22° C., shaken 20 min
Procedure: The polyphosphates to be investigated were each weighed out in a 250 ml Erlenmeyer flask (5 g±0.01 g) and admixed with distilled water (50 ml, 20-22° C.). The mixture thus obtained was shaken at 200 revolutions per minute (rpm, rotary movement) for 20 min. Thereafter, the mixture was transferred to a centrifuge tube and centrifuged at 5000 rpm for 20 min. […] The solubility in g per 100 g of water was then obtained from the formula TR×10, where TR represents the determined dry residue in grams.

| Structure (SMILES) | Hemostatic [1] | Water-soluble [2] |
| --- | --- | --- |
| O=P([O-])([O-])OP(=O)([O-])OP(=O)([O-])[O-].[Na+].[Na+].[Na+].[Na+].[Na+] [Example V1, sodium triphosphate] | No (hemostatic refers to phosphates where the thrombograms, as determined by the above-described technique, have a maximum thrombin concentration of at least 50 nM) | – |
| O=P1([O-])OP(=O)([O-])OP(=O)([O-])O1.[Na+].[Na+].[Na+] [Example V7, sodium trimetaphosphate] | No (hemostatic refers to phosphates where the thrombograms, as determined by the above-described technique, have a maximum thrombin concentration of at least 50 nM) | Yes (water-soluble refers to phosphates having a water solubility of at least 1 g per 100 g of water) |
| O.O.O=P([O-])([O-])O.[Ca+2] [Example V8, dicalcium phosphate dihydrate] | No (hemostatic refers to phosphates where the thrombograms, as determined by the above-described technique, have a maximum thrombin concentration of at least 50 nM) | – |

Reference: patent US9907879B2, “Haemostatic composition comprising crystalline polyphosphate” (BK Giulini GMBH, priority 2013, dated 2018)
